Results from PubChem BioAssay (NCI).
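Interpolation was linear, between the two tested concentrations surrounding the appropriate level; five concentrations were tested over 48 hours in 96-well plates. The concentration for 50% growth inhibition is given as GI50. TGI denotes the concentration required for complete inhibition of growth.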

Assays:
Assay in all cases: DTP human tumour cell line panel, 48 h
786-0 renal = tested on: 786-0 renal
A498 renal = tested on: A498 renal
A549 NSCLC = tested on: A549 NSCLC
ACHN renal = tested on: ACHN renal
BT-549 breast = tested on: BT-549 breast
CAKI-1 renal = tested on: CAKI-1 renal
CCRF-CEM leukemia = tested on: CCRF-CEM leukemia
COLO 205 colon = tested on: COLO 205 colon
DU-145 prostate = tested on: DU-145 prostate
EKVX NSCLC = tested on: EKVX NSCLC
HCC-2998 colon = tested on: HCC-2998 colon
HCT-116 colon = tested on: HCT-116 colon
HCT-15 colon = tested on: HCT-15 colon
HL-60(TB) leukemia = tested on: HL-60(TB) leukemia
HOP-62 NSCLC = tested on: HOP-62 NSCLC
HOP-92 NSCLC = tested on: HOP-92 NSCLC
HS 578T breast = tested on: HS 578T breast
HT29 colon = tested on: HT29 colon
IGROV1 ovarian = tested on: IGROV1 ovarian
K-562 leukemia = tested on: K-562 leukemia
KM12 colon = tested on: KM12 colon
LOX IMVI melanoma = tested on: LOX IMVI melanoma
M14 melanoma = tested on: M14 melanoma
MALME-3M melanoma = tested on: MALME-3M melanoma
MCF7 breast = tested on: MCF7 breast
MDA-MB-231 breast = tested on: MDA-MB-231 breast
MDA-MB-435 = tested on: MDA-MB-435
MOLT-4 leukemia = tested on: MOLT-4 leukemia
NCI-H226 lung = tested on: NCI-H226 lung
NCI-H23 lung = tested on: NCI-H23 lung
NCI-H460 lung = tested on: NCI-H460 lung
NCI-H522 lung = tested on: NCI-H522 lung
NCI/ADR-RES ovarian = tested on: NCI/ADR-RES ovarian
OVCAR-3 ovarian = tested on: OVCAR-3 ovarian
OVCAR-4 ovarian = tested on: OVCAR-4 ovarian
OVCAR-5 ovarian = tested on: OVCAR-5 ovarian
OVCAR-8 ovarian = tested on: OVCAR-8 ovarian
PC-3 prostate = tested on: PC-3 prostate
RPMI-8226 leukemia = tested on: RPMI-8226 leukemia
RXF 393 renal = tested on: RXF 393 renal
SF-268 CNS = tested on: SF-268 CNS
SF-295 CNS = tested on: SF-295 CNS
SF-539 CNS = tested on: SF-539 CNS
SK-MEL-2 melanoma = tested on: SK-MEL-2 melanoma
SK-MEL-28 melanoma = tested on: SK-MEL-28 melanoma
SK-MEL-5 melanoma = tested on: SK-MEL-5 melanoma
SK-OV-3 ovarian = tested on: SK-OV-3 ovarian
SN12C renal = tested on: SN12C renal
SNB-19 CNS = tested on: SNB-19 CNS
SNB-75 CNS = tested on: SNB-75 CNS
SR leukemia = tested on: SR leukemia
SW-620 colon = tested on: SW-620 colon
T-47D breast = tested on: T-47D breast
TK-10 renal = tested on: TK-10 renal
U251 CNS = tested on: U251 CNS
UACC-257 melanoma = tested on: UACC-257 melanoma
UACC-62 melanoma = tested on: UACC-62 melanoma
UO-31 renal = tested on: UO-31 renal

COc1cc(C(=O)c2c(-c3ccccc3)oc3c(OC)cccc23)cc(OC)c1O
GI50 (786-0 renal): 630 nM
TGI (786-0 renal): 14300 nM
GI50 (A498 renal): 378 nM
TGI (A498 renal): 3530 nM
GI50 (A549 NSCLC): 751 nM
TGI (A549 NSCLC): > 100000 nM
GI50 (ACHN renal): 664 nM
TGI (ACHN renal): > 100000 nM
GI50 (BT-549 breast): 1190 nM
TGI (BT-549 breast): 7310 nM
GI50 (CAKI-1 renal): 404 nM
TGI (CAKI-1 renal): 26700 nM
GI50 (CCRF-CEM leukemia): 414 nM
TGI (CCRF-CEM leukemia): > 100000 nM
GI50 (COLO 205 colon): 2050 nM
TGI (COLO 205 colon): 5230 nM
GI50 (DU-145 prostate): 554 nM
TGI (DU-145 prostate): > 100000 nM
GI50 (EKVX NSCLC): 876 nM
TGI (EKVX NSCLC): > 100000 nM
GI50 (HCC-2998 colon): 1960 nM
TGI (HCC-2998 colon): > 100000 nM
GI50 (HCT-116 colon): 563 nM
TGI (HCT-116 colon): > 100000 nM
GI50 (HCT-15 colon): 455 nM
TGI (HCT-15 colon): > 100000 nM
GI50 (HL-60(TB) leukemia): 284 nM
TGI (HL-60(TB) leukemia): 1020 nM
GI50 (HOP-62 NSCLC): 641 nM
TGI (HOP-62 NSCLC): > 100000 nM
GI50 (HOP-92 NSCLC): 276 nM
TGI (HOP-92 NSCLC): 2250 nM
GI50 (HS 578T breast): 405 nM
GI50 (HT29 colon): 3150 nM
TGI (HT29 colon): > 33700 nM
GI50 (IGROV1 ovarian): 654 nM
TGI (IGROV1 ovarian): > 100000 nM
GI50 (K-562 leukemia): 328 nM
TGI (K-562 leukemia): > 100000 nM
GI50 (KM12 colon): 450 nM
TGI (KM12 colon): > 51200 nM
GI50 (LOX IMVI melanoma): 608 nM
TGI (LOX IMVI melanoma): > 100000 nM
GI50 (M14 melanoma): 351 nM
TGI (M14 melanoma): > 100000 nM
GI50 (MALME-3M melanoma): 509 nM
TGI (MALME-3M melanoma): > 100000 nM
GI50 (MCF7 breast): 351 nM
TGI (MCF7 breast): > 100000 nM
GI50 (MDA-MB-231 breast): 1500 nM
TGI (MDA-MB-231 breast): 16100 nM
GI50 (MDA-MB-435): 162 nM
TGI (MDA-MB-435): 459 nM
GI50 (MOLT-4 leukemia): 605 nM
TGI (MOLT-4 leukemia): > 100000 nM
GI50 (NCI-H226 lung): 3100 nM
TGI (NCI-H226 lung): > 100000 nM
GI50 (NCI-H23 lung): 864 nM
TGI (NCI-H23 lung): > 100000 nM
GI50 (NCI-H460 lung): 401 nM
TGI (NCI-H460 lung): > 22100 nM
GI50 (NCI-H522 lung): 269 nM
TGI (NCI-H522 lung): 5180 nM
GI50 (NCI/ADR-RES ovarian): 454 nM
TGI (NCI/ADR-RES ovarian): > 100000 nM
GI50 (OVCAR-3 ovarian): 302 nM
TGI (OVCAR-3 ovarian): 1660 nM
GI50 (OVCAR-4 ovarian): 2820 nM
TGI (OVCAR-4 ovarian): > 100000 nM
GI50 (OVCAR-5 ovarian): 3220 nM
TGI (OVCAR-5 ovarian): > 100000 nM
GI50 (OVCAR-8 ovarian): 631 nM
TGI (OVCAR-8 ovarian): > 100000 nM
GI50 (PC-3 prostate): 450 nM
TGI (PC-3 prostate): > 37200 nM
GI50 (RPMI-8226 leukemia): 403 nM
TGI (RPMI-8226 leukemia): 5750 nM
GI50 (RXF 393 renal): 313 nM
TGI (RXF 393 renal): 2000 nM
GI50 (SF-268 CNS): 1040 nM
TGI (SF-268 CNS): > 100000 nM
GI50 (SF-295 CNS): 569 nM
TGI (SF-295 CNS): > 21500 nM
GI50 (SF-539 CNS): 311 nM
TGI (SF-539 CNS): 2640 nM
GI50 (SK-MEL-2 melanoma): 2280 nM
TGI (SK-MEL-2 melanoma): > 100000 nM
GI50 (SK-MEL-28 melanoma): 4090 nM
TGI (SK-MEL-28 melanoma): > 100000 nM
GI50 (SK-MEL-5 melanoma): 651 nM
TGI (SK-MEL-5 melanoma): 8620 nM
GI50 (SK-OV-3 ovarian): 765 nM
TGI (SK-OV-3 ovarian): > 100000 nM
GI50 (SN12C renal): 1460 nM
TGI (SN12C renal): > 100000 nM
GI50 (SNB-19 CNS): 1760 nM
TGI (SNB-19 CNS): > 100000 nM
GI50 (SNB-75 CNS): 184 nM
TGI (SNB-75 CNS): 605 nM
GI50 (SR leukemia): 339 nM
TGI (SR leukemia): 53000 nM
GI50 (SW-620 colon): 454 nM
TGI (SW-620 colon): > 100000 nM
GI50 (T-47D breast): 1200 nM
TGI (T-47D breast): > 100000 nM
GI50 (TK-10 renal): 15000 nM
TGI (TK-10 renal): > 81900 nM
GI50 (U251 CNS): 507 nM
TGI (U251 CNS): > 100000 nM
GI50 (UACC-257 melanoma): 63500 nM
TGI (UACC-257 melanoma): > 100000 nM
GI50 (UACC-62 melanoma): 583 nM
TGI (UACC-62 melanoma): > 100000 nM
GI50 (UO-31 renal): 648 nM
TGI (UO-31 renal): > 100000 nM
